Experimental data taken from a flash point compilation (Sun et al. 2020).
Where a name gives a salt, the structure may show the parent alone.

| SMILES | flash point [°C] |
| --- | --- |
| O=C(O)c1ccccc1O [2-hydroxybenzoic acid] | 157.00 |
| C=CCCCCCCCCCCCC [tetradec-1-ene] | 110.00 |
| CCCCSP(SCCCC)SCCCC [tris(butylsulfanyl)phosphane] | 146.00 |
| CC(C)OCC1CO1 (centres undefined) [2-(propan-2-yloxymethyl)oxirane] | 33.00 |
| Cc1ccccc1O [2-methylphenol] | 81.00 |
| C[Si](Cl)(Cl)Cl [trichloro(methyl)silane] | -9.00 |
| O=C(O)c1ccccc1 [benzoic acid] | 121.00 |
| O=Cc1ccc(Cl)cc1Cl [2,4-dichlorobenzaldehyde] | 135.00 |
| N#CC(Cl)(Cl)Cl [2,2,2-trichloroacetonitrile] | 74.00 |
| Cc1ccc(N)c([N+](=O)[O-])c1 [4-methyl-2-nitroaniline] | 157.00 |
| CNC(C)=O [N-methylacetamide] | 108.00 |
| CCOCCOCCOC(C)=O [2-(2-ethoxyethoxy)ethyl acetate] | 110.00 |
| CC(=O)OCN=[N+](C)[O-] [acetyloxymethylimino-methyl-oxidoazanium] | 99.00 |
| ClCCCl [1,2-dichloroethane] | 13.00 |
| CCOCCCO [3-ethoxypropan-1-ol] | 54.00 |
| CCC(C)Nc1ccc(NC(C)CC)cc1 (centres undefined) [1-N,4-N-di(butan-2-yl)benzene-1,4-diamine] | 141.00 |
| CC(C)OCCO [2-propan-2-yloxyethanol] | 33.00 |
| COc1nc(C)nc(NC(=O)NS(=O)(=O)c2ccccc2CCC(F)(F)F)n1 | 100.00 |
| CCC(=O)Cl [propanoyl chloride] | 12.00 |
| CCSC(=O)N1CCCCCC1 [S-ethyl azepane-1-carbothioate] | 139.00 |
| c1ccc(Cc2ccccc2)cc1 [benzylbenzene] | 130.00 |
| OCCCCCCO [hexane-1,6-diol] | 102.00 |
| CCC(CC)C(=O)OCCOCCOCCOC(=O)C(CC)CC | 196.00 |
| C#CCO [prop-2-yn-1-ol] | 33.00 |

| SMILES | flash point [°C] |
| --- | --- |
| Nc1ccc(Cc2ccc(N)c(Cl)c2)cc1Cl [4-[(4-amino-3-chlorophenyl)methyl]-2-chloroaniline] | 113.00 |
| Cc1cnc[nH]1 [5-methyl-1H-imidazole] | 157.00 |
| OCC1CCC(CO)CC1.OCC1CCC(CO)CC1 (centres undefined) [[4-(hydroxymethyl)cyclohexyl]methanol] | 166.00 |
| CCCCCCCCCS [nonane-1-thiol] | 78.00 |
| CC(C)(OO)c1ccccc1 [2-hydroperoxypropan-2-ylbenzene] | 57.00 |
| CCN(CC)C(C)=O [N,N-diethylacetamide] | 77.00 |
| NC(=O)c1cccnc1 [pyridine-3-carboxamide] | 182.00 |
| Fc1ccc(Br)cc1 [1-bromo-4-fluorobenzene] | 60.00 |
| O=[N+]([O-])c1ccccc1-c1ccccc1 [1-nitro-2-phenylbenzene] | 143.00 |
| CCOC(=O)/C=C/C(=O)OCC [diethyl (E)-but-2-enedioate] | 104.00 |
| O=CC(Cl)=C(Cl)C(=O)O [2,3-dichloro-4-oxobut-2-enoic acid] | 100.00 |
| C=CC(=O)OCC(C)(C)COC(=O)C=C [(2,2-dimethyl-3-prop-2-enoyloxypropyl) prop-2-enoate] | 115.00 |
| Cc1ccc([N+](=O)[O-])cc1.N.Nc1cccc([N+](=O)[O-])c1.Nc1ccccc1[N+](=O)[O-] [azane;1-methyl-4-nitrobenzene;2-nitroaniline;3-nitroaniline] | 154.00 |
| O=C1OC(=O)c2c(Cl)c(Cl)c(Cl)c(Cl)c21 [4,5,6,7-tetrachloro-2-benzofuran-1,3-dione] | 362.00 |
| CC(Br)c1ccccc1 (centres undefined) [1-bromoethylbenzene] | 96.00 |
| CC(C)C1CCCCC1 [propan-2-ylcyclohexane] | 36.00 |
| O=C1c2ccccc2C(=O)c2ccccc21 [anthracene-9,10-dione] | 185.00 |
| O=S1(=O)CCCC1 [thiolane 1,1-dioxide] | 166.00 |
| CCCCCCCCCCCS [undecane-1-thiol] | 109.00 |
| C=C1CC(=O)O1 [4-methylideneoxetan-2-one] | 34.00 |
| C1=CCC=C1.C1=CCC=C1.[Ni] [cyclopenta-1,3-diene;nickel] | 4.00 |
| CC(=O)OC(Cl)CCl (centres undefined) [1,2-dichloroethyl acetate] | 153.00 |
| O=[N+]([O-])N(Cl)c1ccccc1 [N-chloro-N-phenylnitramide] | 205.00 |
| CCCCCCCCCCOC(=O)c1ccccc1C(=O)OCCCCCCCC [2-O-decyl 1-O-octyl benzene-1,2-dicarboxylate] | 235.00 |

| SMILES | flash point [°C] |
| --- | --- |
| Oc1ccc(Br)cc1Br [2,4-dibromophenol] | 113.00 |
| CCCCC(CC)COC(=O)c1ccccc1C(=O)OCC(CC)CCCC (centres undefined) [bis(2-ethylhexyl) benzene-1,2-dicarboxylate] | 207.00 |
| CNCCCN [N'-methylpropane-1,3-diamine] | 36.00 |
| Clc1cccc(-c2cc(Cl)cc(Cl)c2)c1 [1,3-dichloro-5-(3-chlorophenyl)benzene] | 141.00 |
| C1COCO1 [1,3-dioxolane] | 2.00 |
| O=C=Nc1ccccc1 [isocyanatobenzene] | 56.00 |
| CNC(C)Cc1ccccc1 (centres undefined) [N-methyl-1-phenylpropan-2-amine] | 9.00 |
| CN(C)C(=O)/N=N/C(=O)N(C)C [(3E)-3-(dimethylcarbamoylimino)-1,1-dimethylurea] | 40.00 |
| Nc1cc(Cl)ccc1Cl [2,5-dichloroaniline] | 113.00 |
| C=CCOC(C)=O [prop-2-enyl acetate] | 22.00 |
| O=C(O)c1ccc(C(=O)O)cc1 [terephthalic acid] | 260.00 |
| Cc1ccc([N+](=O)[O-])cc1 [1-methyl-4-nitrobenzene] | 106.00 |
| O=[N+]([O-])c1cccc(Cl)c1Cl [1,2-dichloro-3-nitrobenzene] | 124.00 |
| CN(C)C#N [dimethylcyanamide] | 71.00 |
| CCOCCOCCOCC [1-ethoxy-2-(2-ethoxyethoxy)ethane] | 54.00 |
| CCc1cccc(CC)c1CC [1,2,3-triethylbenzene] | 83.00 |
| CC(Cl)CCl (centres undefined) [1,2-dichloropropane] | 16.00 |
| CCC(C)(C)OC [2-methoxy-2-methylbutane] | -7.00 |
| C=C(Cl)C#N [2-chloroprop-2-enenitrile] | 7.00 |
| CCOC(=O)CCC(=O)OCC [diethyl butanedioate] | 90.00 |
| CC(C)(C)c1cc(O)ccc1O [2-tert-butylbenzene-1,4-diol] | 171.00 |
| CCCCCCCCCC [decane] | 46.00 |
| COCCOC(=O)c1ccccc1C(=O)OCCOC [bis(2-methoxyethyl) benzene-1,2-dicarboxylate] | 210.00 |
| CC/C(=C(/CC)c1ccc(O)cc1)c1ccc(O)cc1 [4-[(E)-4-(4-hydroxyphenyl)hex-3-en-3-yl]phenol] | 104.00 |

| SMILES | flash point [°C] |
| --- | --- |
| C[Si](C)(C)O[Si](C)(O[Si](C)(C)C)O[Si](C)(C)C [trimethyl-[methyl-bis(trimethylsilyloxy)silyl]oxysilane] | 86.00 |
| C=C(C)C(=O)OCC1CO1 (centres undefined) [oxiran-2-ylmethyl 2-methylprop-2-enoate] | 83.00 |
| Cc1ccc(S(=O)(=O)[N-]Cl)cc1.[Na+] [sodium;chloro-(4-methylphenyl)sulfonylazanide] | 192.00 |
| CCC[Si](Cl)(Cl)Cl [trichloro(propyl)silane] | 37.00 |
| CC1=C(C(=O)Nc2ccccc2)SCCO1 [6-methyl-N-phenyl-2,3-dihydro-1,4-oxathiine-5-carboxamide] | 203.00 |
| C=CC(=O)OC(C)(C)C [tert-butyl prop-2-enoate] | 19.00 |
| CC(C)=CCC1CCCC1=O (centres undefined) [2-(3-methylbut-2-enyl)cyclopentan-1-one] | 23.00 |
| O=C(OCc1ccccc1)c1ccccc1O [benzyl 2-hydroxybenzoate] | 180.00 |
| Cc1ccc(C(C)C)cc1O [2-methyl-5-propan-2-ylphenol] | 100.00 |
| CN(C)CCO [2-(dimethylamino)ethanol] | 41.00 |
| C=CCN(CC=C)CC=C [N,N-bis(prop-2-enyl)prop-2-en-1-amine] | 39.00 |
| O=C=Nc1ccc2ccccc2c1N=C=O [1,2-diisocyanatonaphthalene] | 192.00 |
| CC(=O)Oc1ccccc1C(=O)O [2-acetyloxybenzoic acid] | 250.00 |
| COC(=O)CCCC(=O)OC [dimethyl pentanedioate] | 103.00 |
| COC(=O)c1ccccc1 [methyl benzoate] | 83.00 |
| COC(=O)c1ccccc1N [methyl 2-aminobenzoate] | 104.00 |
| CCOC(=O)NC [ethyl N-methylcarbamate] | 73.00 |
| Cc1ccc2oc(=O)ccc2c1 [6-methylchromen-2-one] | 130.00 |
| CCC=CCC1=C(C)CCC1=O [3-methyl-2-pent-2-enylcyclopent-2-en-1-one] | 107.00 |
| COS(=O)(=O)OC [dimethyl sulfate] | 83.00 |
| Cc1ccc(C(C)C)cc1 [1-methyl-4-propan-2-ylbenzene] | 47.00 |
| c1ccc(COCc2ccccc2)cc1 [phenylmethoxymethylbenzene] | 135.00 |
